Data reported in ChEMBL document CHEMBL1201862, “PubChem BioAssay data set” (2004).
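Cells were grown in 96-well plates and exposed to each compound for 48 hours at five concentrations; endpoints were interpolated linearly between bracketing concentrations, or set to the highest concentration if not reached. Here, GI50 denotes the concentration required for 50% inhibition of growth.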 The source made the active and inactive calls. Cut-off read from the data, not from the text of the source: active = GI50 up to about 1.1 µM and inactive = higher. *1 amine or outer side, *2 acyl side, *3 side chain or, on linkers, in order; H or OH if unused. Where a SMILES comes first, the peptide text is derived from it. Bridges are numbered along the chain shown (N, C = ends). [ ]: non-standard residue; d: D form. ξ: configuration not given here. X10 = CCC(C)C(N[*:1])C(O)CC(=O)O[C@H](C(=O)C(C)C(=O)[*:2])C(C)C; NMeY = CN[C@@H](Cc1ccc(O)cc1)C(=O)O; ξNMeL = CNC(CC(C)C)C(=O)O; ξT = CC(O)C(N)C(=O)O

What was measured:
Test in all cases: inhibition of tumour cell growth, NCI panel, 48 h
CCRF-CEM = test system: CCRF-CEM
COLO 205 = test system: COLO 205
HCC 2998 = test system: HCC 2998
HCT-116 = test system: HCT-116
HCT-15 = test system: HCT-15
HOP-62 = test system: HOP-62
Hs-578T = test system: Hs-578T
LOX IMVI = test system: LOX IMVI
MDA-MB-435 = test system: MDA-MB-435
NCI-H23 = test system: NCI-H23
NCI-H460 = test system: NCI-H460
OVCAR-3 = test system: OVCAR-3
OVCAR-5 = test system: OVCAR-5
PC-3 = test system: PC-3
SF-268 = test system: SF-268
SK-MEL-5 = test system: SK-MEL-5
SK-OV-3 = test system: SK-OV-3
SR = test system: SR
SW-620 = test system: SW-620
Malme-3M = test system: Malme-3M

Row | Structure (SMILES) | GI50 (CCRF-CEM) | GI50 (COLO 205) | GI50 (HCC 2998) | GI50 (HCT-116) | GI50 (HCT-15) [µM] | GI50 (HOP-62) | GI50 (Hs-578T) | GI50 (LOX IMVI) | GI50 (MDA-MB-435) | GI50 (NCI-H23) | GI50 (NCI-H460) | GI50 (OVCAR-3) | GI50 (OVCAR-5) | GI50 (PC-3) | GI50 (SF-268) | GI50 (SK-MEL-5) | GI50 (SK-OV-3) | GI50 (SR) | GI50 (SW-620) | GI50 (Malme-3M)
1 | O=C(CCC(=O)c1ccc(Cl)cc1)NO | > 100 µM (inactive) | > 100 µM (inactive) | > 100 µM (inactive) | > 100 µM (inactive) | > 100 | > 100 µM (inactive) | > 100 µM (inactive) | > 100 µM (inactive) | > 100 µM (inactive) | > 100 µM (inactive) | > 100 µM (inactive) | > 100 µM (inactive) | > 100 µM (inactive) | > 100 µM (inactive) | > 100 µM (inactive) | > 100 µM (inactive) | > 100 µM (inactive) | > 100 µM (inactive) | > 100 µM (inactive) | 
2 | COc1cc2c(/C=C3/C(=O)Nc4ccccc43)c(Cl)[nH]c2cc1C | 0.0583 µM (active) | 0.0552 µM (active) | 0.0861 µM (active) | 0.0597 µM (active) | 0.0408 | 0.107 µM (active) | 0.0427 µM (active) | 0.0631 µM (active) | 0.0141 µM (active) | 0.0407 µM (active) | 0.0716 µM (active) | 0.0434 µM (active) | 0.129 µM (active) | 0.0435 µM (active) | 0.0644 µM (active) | 0.0467 µM (active) | 0.0314 µM (active) | 0.0414 µM (active) | 0.0855 µM (active) | 
3 | O=C1C=CC(=C(c2ccccc2)c2ccc(O)cc2)C=C1 | 1.16 µM (inactive) | 14.9 µM (inactive) | 31.1 µM (inactive) | 50.5 µM (inactive) | 14.2 | 21.9 µM (inactive) | 16.7 µM (inactive) | 4.51 µM (inactive) | 15.7 µM (inactive) | 18.7 µM (inactive) | 17.3 µM (inactive) | 16.2 µM (inactive) | 20.3 µM (inactive) | 22.1 µM (inactive) | 20 µM (inactive) | 11.5 µM (inactive) |  | 7.45 µM (inactive) | 18.1 µM (inactive) | 13.6 µM (inactive)
4 | CCC(C)C1NC(=O)C(NC(=O)C(CC(C)C)N(C)C(=O)[C@@H]2CCCN2)C(C)OC(=O)[C@H](Cc2ccc(OC)cc2)N(C)C(=O)[C@@H]2CCCN2C(=O)[C@H](CC(C)C)NC(=O)C(C)C(=O)[C@H](C(C)C)OC(=O)CC1O (some centres undefined) (H-P[ξNMeL][ξT][X10]LP[NMeY](Me); ester 3-C) | 0.000493 µM (active) | 0.000153 µM (active) | 0.000438 µM (active) | < 0.0001 µM (active) | 0.016 | 0.00126 µM (active) | < 0.01 µM (active) | < 0.0001 µM (active) | 0.00047 µM (active) | 0.000258 µM (active) | 0.000249 µM (active) | 0.00136 µM (active) | < 0.01 µM (active) | 0.00106 µM (active) | 0.000267 µM (active) | < 0.0001 µM (active) | 0.000386 µM (active) | 0.000317 µM (active) | 0.000555 µM (active) | 0.000317 µM (active)
5 | COc1ccc(NC(=S)N/N=C/c2c(C)n(C)n(-c3ccccc3)c2=O)cc1 | > 100 µM (inactive) | > 100 µM (inactive) | > 100 µM (inactive) | 77.6 µM (inactive) | > 100 | 19.4 µM (inactive) | 29.9 µM (inactive) | > 100 µM (inactive) | 51.4 µM (inactive) | 31.5 µM (inactive) |  |  |  | 69.8 µM (inactive) | 27.9 µM (inactive) | > 100 µM (inactive) | 28.6 µM (inactive) | 78.5 µM (inactive) | > 100 µM (inactive) | 
6 | Cc1cc2nc3ccccc3n2c2ccccc12 | 5.96 µM (inactive) | > 10 µM (inactive) | > 10 µM (inactive) | > 10 µM (inactive) | > 10 | > 10 µM (inactive) | > 10 µM (inactive) | > 10 µM (inactive) | > 10 µM (inactive) | > 10 µM (inactive) | 4.3 µM (inactive) | > 10 µM (inactive) | > 10 µM (inactive) | > 10 µM (inactive) | > 10 µM (inactive) | > 10 µM (inactive) | > 10 µM (inactive) | > 10 µM (inactive) | > 10 µM (inactive) | > 10 µM (inactive)
7 | O=CN/C=C/c1cccc(O)c1 | 61.1 µM (inactive) | > 77.3 µM (inactive) | > 74.6 µM (inactive) | 52.7 µM (inactive) | 72.1 | 39.3 µM (inactive) | > 55.2 µM (inactive) | 48.4 µM (inactive) | 38.2 µM (inactive) | 52.4 µM (inactive) | 43.1 µM (inactive) | > 100 µM (inactive) | 74.6 µM (inactive) | 56.6 µM (inactive) | > 57.5 µM (inactive) | > 63.1 µM (inactive) | > 72.1 µM (inactive) | > 43.7 µM (inactive) | 69.7 µM (inactive) | > 82.8 µM (inactive)
8 | OC(C1CCCCCCCCCC1)C(O)C1CCCCCCCCCC1 (centres undefined) | > 100 µM (inactive) | > 100 µM (inactive) | > 100 µM (inactive) | > 100 µM (inactive) | > 100 | > 100 µM (inactive) | > 100 µM (inactive) | > 100 µM (inactive) | > 100 µM (inactive) | 43.2 µM (inactive) | > 100 µM (inactive) | > 100 µM (inactive) | > 100 µM (inactive) | > 100 µM (inactive) | > 100 µM (inactive) | > 100 µM (inactive) | > 100 µM (inactive) | > 100 µM (inactive) | > 100 µM (inactive) | > 100 µM (inactive)
9 | Cc1c2cccc-2ccc2c1[nH]c1ccc(Br)cc12 | 3.12 µM (inactive) | 2.06 µM (inactive) | 15.2 µM (inactive) | 4.85 µM (inactive) | 3.62 | 6.43 µM (inactive) | 5.86 µM (inactive) | 4.44 µM (inactive) | 4.7 µM (inactive) | 6.44 µM (inactive) | 4.56 µM (inactive) | 3.84 µM (inactive) | 3.94 µM (inactive) | 4.18 µM (inactive) | 4.6 µM (inactive) | 3.9 µM (inactive) | 14.7 µM (inactive) | 3.04 µM (inactive) | 4.75 µM (inactive) | 9.86 µM (inactive)
10 | O=c1oc2c(Br)c(O)c(Br)cc2c2ccccc12 | 25.6 µM (inactive) | 29.9 µM (inactive) | 33.3 µM (inactive) | 29.4 µM (inactive) | 19.2 | 30.5 µM (inactive) | 20.7 µM (inactive) | 23.8 µM (inactive) | 36.6 µM (inactive) | 15.6 µM (inactive) | 24 µM (inactive) | 16.5 µM (inactive) | 35 µM (inactive) | 21 µM (inactive) | 20.8 µM (inactive) | 24.5 µM (inactive) |  | 23.2 µM (inactive) | 36.6 µM (inactive) | 26.5 µM (inactive)
11 | CN(C)c1c(C2OC(CO)C(O)C2O)c(=O)c1=O (centres undefined) | 82.2 µM (inactive) |  | > 100 µM (inactive) | > 100 µM (inactive) | > 100 | > 100 µM (inactive) | > 100 µM (inactive) | > 100 µM (inactive) | > 100 µM (inactive) | > 100 µM (inactive) | > 100 µM (inactive) | > 100 µM (inactive) | > 100 µM (inactive) | > 100 µM (inactive) | > 100 µM (inactive) |  | > 100 µM (inactive) | > 100 µM (inactive) | > 100 µM (inactive) | > 100 µM (inactive)
12 | O=[N+]([O-])c1cc(Cl)cc2cc(Cl)cnc12 | > 100 µM (inactive) | > 100 µM (inactive) | > 100 µM (inactive) | 95.1 µM (inactive) | > 100 | > 100 µM (inactive) | 25.9 µM (inactive) | > 100 µM (inactive) | > 100 µM (inactive) | > 100 µM (inactive) | > 100 µM (inactive) | > 100 µM (inactive) | > 100 µM (inactive) | 93.5 µM (inactive) | > 100 µM (inactive) | 62.5 µM (inactive) |  | 63.8 µM (inactive) | > 100 µM (inactive) | > 100 µM (inactive)
13 | COc1ccc(OC)c2sc(N3C(=O)/C(=C/c4ccccc4S)N=C3c3ccccc3)nc12 | 22.3 µM (inactive) | 32.8 µM (inactive) | > 100 µM (inactive) | 28.2 µM (inactive) | 34.1 | 82.6 µM (inactive) | 49.7 µM (inactive) | 24.9 µM (inactive) | 17.6 µM (inactive) |  | 53.8 µM (inactive) | 37.5 µM (inactive) | > 100 µM (inactive) | 19.7 µM (inactive) | 59.7 µM (inactive) | 18.4 µM (inactive) | > 100 µM (inactive) | 14.4 µM (inactive) | 39.2 µM (inactive) | 
14 | CC1=NN(C(=O)CC(=O)Nc2ccccc2C)C(=O)C1/N=N/c1ccc(C(=O)O)cc1 (centres undefined) | 86.9 µM (inactive) | > 100 µM (inactive) | > 100 µM (inactive) | > 100 µM (inactive) | > 100 | > 100 µM (inactive) | 68.9 µM (inactive) | 79.3 µM (inactive) | > 100 µM (inactive) | > 100 µM (inactive) | > 100 µM (inactive) | > 100 µM (inactive) | > 100 µM (inactive) | > 100 µM (inactive) | > 100 µM (inactive) | > 100 µM (inactive) |  | 43.4 µM (inactive) | > 100 µM (inactive) | > 100 µM (inactive)
15 | COc1cc(C2SCC(=O)N2c2ccccn2)cc(OC)c1OC (centres undefined) | > 100 µM (inactive) | > 100 µM (inactive) | > 100 µM (inactive) | 79.6 µM (inactive) | 55.5 |  | > 100 µM (inactive) | > 100 µM (inactive) | 27 µM (inactive) | > 100 µM (inactive) | > 100 µM (inactive) | > 100 µM (inactive) | > 100 µM (inactive) | > 100 µM (inactive) | > 100 µM (inactive) | 55 µM (inactive) | > 100 µM (inactive) | 31.6 µM (inactive) | 76 µM (inactive) | 
